Measured values published in PMC12090182, “Repurposing of the RIPK1-Selective Benzo[1,4]oxazepin-4-one Scaffold for the Development of a Type III LIMK1/2 Inhibitor” (ACS Chemical Biology, 2025).
Read-outs that look alike come from different tables or passages of the source.

Experiments:
PIK3CA(C420R) = PIK3CA(C420R) (Homo sapiens, UniProt P42336, C420R); experiment: biochemical; type: binding; conditions: read-out: Percent Control
[1] = Pharmacokinetic screening in mice (IV and PO, cassette dosing); type: in vivo, mouse; conditions: plasma
Experimental: Test compounds were administered intravenously (0.1 mg mL^–1/kg) or orally (1 mg/5 mL/kg) by cassette dosing to nonfasted mice. After administration, blood samples were collected and centrifuged to obtain the plasma fraction. The plasma samples were deproteinized followed by centrifugation. The compound concentrations in the supernatant were analyzed by LC/MS/MS.

ALK(C1156Y) = ALK(C1156Y) (Homo sapiens, UniProt Q9UM73, C1156Y); experiment: biochemical; type: binding; conditions: 1000 nM, read-out: Percent Control
[2] = target: ABL1(Y253F)-phosphorylated (Homo sapiens, UniProt P00519, Y253F); experiment: biochemical; type: binding; conditions: read-out: Percent Control
KIT(V559D,T670I) = KIT(V559D,T670I) (Homo sapiens, UniProt P10721, T670I/V559D); experiment: biochemical; type: binding; conditions: compound concentration 100 nM; Entrez KIT; read-out: Percent Control
PIK3CA(H1047Y) = PIK3CA(H1047Y) (Homo sapiens, UniProt P42336, H1047Y); experiment: biochemical; type: binding; conditions: compound concentration 100 nM; Entrez PIK3CA; read-out: Percent Control
RIPK1 = target: T1, RIPK1 (Homo sapiens, UniProt Q13546); experiment: scanMAX KINOMEscan (Eurofins); type: binding
T1 construct: full-length LIMK1/2, RIPK1, BTK, and LRRK2 cloned in a frame in a NanoLuc-vector (Promega); host or cells: HEK293T
T1 sequence (Q13546 1-671): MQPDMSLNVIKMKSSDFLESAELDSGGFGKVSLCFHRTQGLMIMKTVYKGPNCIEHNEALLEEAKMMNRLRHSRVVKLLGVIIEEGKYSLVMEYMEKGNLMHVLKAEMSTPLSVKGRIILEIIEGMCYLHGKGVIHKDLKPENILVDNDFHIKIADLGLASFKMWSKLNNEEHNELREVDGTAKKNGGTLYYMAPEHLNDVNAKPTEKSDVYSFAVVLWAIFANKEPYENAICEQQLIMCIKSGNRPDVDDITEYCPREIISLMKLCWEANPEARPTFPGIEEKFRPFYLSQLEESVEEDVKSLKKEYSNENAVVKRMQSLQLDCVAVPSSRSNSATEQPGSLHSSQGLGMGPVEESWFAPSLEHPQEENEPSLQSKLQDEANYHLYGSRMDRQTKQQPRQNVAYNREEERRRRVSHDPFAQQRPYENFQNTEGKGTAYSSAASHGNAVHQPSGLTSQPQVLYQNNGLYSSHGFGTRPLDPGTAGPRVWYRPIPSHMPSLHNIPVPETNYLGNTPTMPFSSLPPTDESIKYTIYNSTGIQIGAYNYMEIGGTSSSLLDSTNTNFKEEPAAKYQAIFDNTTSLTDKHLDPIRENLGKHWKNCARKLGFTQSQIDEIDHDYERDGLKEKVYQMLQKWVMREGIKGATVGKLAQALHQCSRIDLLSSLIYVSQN

FLT3(ITD,D835V) = type: binding; conditions: 1000 nM
[3] = target: ABL1(F317L)-nonphosphorylated (Homo sapiens, UniProt P00519, F317L); experiment: biochemical; type: binding; conditions: read-out: Percent Control
EGFR(E746-A750del) = EGFR(E746-A750del) (Homo sapiens, UniProt P00533, DEL746-750); experiment: biochemical; type: binding; conditions: read-out: Percent Control
EGFR(S752-I759del) = EGFR(S752-I759del) (Homo sapiens, UniProt P00533, DEL752-759); experiment: biochemical; type: binding; conditions: read-out: Percent Control
MAPK4 = MAPK4 (Homo sapiens, UniProt P31152); type: cell-based; conditions: HEK-293T; 1 μM inhibitor, HEK293T cells
Procedure, shortened: (§1)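 Using transiently transfected HEK293T cells, the inhibitor (1 μM) is tested for displacing Tracer K10 from each expressed kinase after 20 h expression. Luminescence at donor and acceptor wavelengths yields occupancy.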

MYLK4 = MYLK4 (Homo sapiens, UniProt Q86YV6); type: cell-based; conditions: HEK-293T; 1 μM inhibitor, HEK293T cells
Procedure, shortened: as §1

FLT3 = FLT3 (Homo sapiens, UniProt P36888); type: cell-based; conditions: HEK-293T; 1 μM inhibitor, HEK293T cells
Procedure, shortened: as §1

RIPK2 = RIPK2 (Homo sapiens, UniProt O43353); type: cell-based; conditions: HEK-293T; 1 μM inhibitor, HEK293T cells
Procedure, shortened: as §1

PLK3 = PLK3 (Homo sapiens, UniProt Q9H4B4); type: cell-based; conditions: HEK-293T; 1 μM inhibitor, HEK293T cells
Procedure, shortened: as §1

PAK4 = PAK4 (Homo sapiens, UniProt O96013); type: cell-based; conditions: HEK-293T; 1 μM inhibitor, HEK293T cells
Procedure, shortened: as §1

EPHB4 = EPHB4 (Homo sapiens, UniProt P54760); type: cell-based; conditions: HEK-293T; 1 μM inhibitor, HEK293T cells
Procedure, shortened: as §1

CSNK2A1 = CSNK2A1 (Homo sapiens, UniProt P68400); type: cell-based; conditions: HEK-293T; 1 μM inhibitor, HEK293T cells
Procedure, shortened: as §1

BRD4 = BRD4 (Homo sapiens, UniProt O60885); experiment: DSF selectivity screening; type: binding; conditions: 10 μM compound

Chain of PIK3CA(C420R) (P42336 whole entry C420R): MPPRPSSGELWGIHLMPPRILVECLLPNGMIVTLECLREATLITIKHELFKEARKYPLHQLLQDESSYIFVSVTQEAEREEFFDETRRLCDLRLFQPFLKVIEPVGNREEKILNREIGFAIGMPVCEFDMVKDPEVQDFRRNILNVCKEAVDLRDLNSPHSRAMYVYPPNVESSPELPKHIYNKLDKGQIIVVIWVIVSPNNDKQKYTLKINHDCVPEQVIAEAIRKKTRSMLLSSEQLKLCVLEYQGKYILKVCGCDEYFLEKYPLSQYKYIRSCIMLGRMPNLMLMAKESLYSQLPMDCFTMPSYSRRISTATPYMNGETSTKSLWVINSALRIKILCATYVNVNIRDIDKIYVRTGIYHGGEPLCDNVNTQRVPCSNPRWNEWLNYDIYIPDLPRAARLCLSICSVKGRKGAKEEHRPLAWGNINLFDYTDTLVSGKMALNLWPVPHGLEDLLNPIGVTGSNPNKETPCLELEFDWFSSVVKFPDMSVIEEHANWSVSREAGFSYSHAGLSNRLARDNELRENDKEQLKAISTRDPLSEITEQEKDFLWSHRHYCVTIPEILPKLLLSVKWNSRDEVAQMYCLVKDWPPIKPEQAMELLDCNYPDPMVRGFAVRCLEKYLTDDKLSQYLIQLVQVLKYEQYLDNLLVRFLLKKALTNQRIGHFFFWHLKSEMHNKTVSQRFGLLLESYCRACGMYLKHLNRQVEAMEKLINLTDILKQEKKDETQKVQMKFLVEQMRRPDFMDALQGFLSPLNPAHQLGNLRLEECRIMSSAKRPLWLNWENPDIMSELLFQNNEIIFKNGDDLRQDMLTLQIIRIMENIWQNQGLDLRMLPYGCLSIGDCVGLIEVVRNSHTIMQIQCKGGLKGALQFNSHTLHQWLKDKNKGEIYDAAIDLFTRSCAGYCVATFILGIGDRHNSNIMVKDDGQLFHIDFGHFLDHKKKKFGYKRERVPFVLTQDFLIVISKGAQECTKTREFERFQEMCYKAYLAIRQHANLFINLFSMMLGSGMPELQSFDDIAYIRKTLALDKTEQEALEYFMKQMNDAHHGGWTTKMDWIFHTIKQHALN
Chain of RIPK2 (O43353 whole entry): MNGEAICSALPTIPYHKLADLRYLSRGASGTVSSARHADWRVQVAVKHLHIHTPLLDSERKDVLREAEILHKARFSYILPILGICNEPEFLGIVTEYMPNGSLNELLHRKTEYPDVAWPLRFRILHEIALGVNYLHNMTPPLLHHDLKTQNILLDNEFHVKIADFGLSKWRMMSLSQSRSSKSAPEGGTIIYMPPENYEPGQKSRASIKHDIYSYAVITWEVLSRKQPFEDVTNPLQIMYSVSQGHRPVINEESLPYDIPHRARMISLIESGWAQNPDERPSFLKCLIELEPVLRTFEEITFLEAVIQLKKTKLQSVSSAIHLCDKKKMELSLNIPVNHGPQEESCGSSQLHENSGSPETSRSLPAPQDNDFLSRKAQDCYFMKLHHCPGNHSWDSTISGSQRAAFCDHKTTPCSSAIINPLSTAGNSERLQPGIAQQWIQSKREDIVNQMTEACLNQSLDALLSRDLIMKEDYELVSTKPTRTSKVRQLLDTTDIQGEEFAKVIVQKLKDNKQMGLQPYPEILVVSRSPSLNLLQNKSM
Chain of EGFR(E746-A750del) (P00533 other isoform, or with tags, fused parts or gaps DEL746-750): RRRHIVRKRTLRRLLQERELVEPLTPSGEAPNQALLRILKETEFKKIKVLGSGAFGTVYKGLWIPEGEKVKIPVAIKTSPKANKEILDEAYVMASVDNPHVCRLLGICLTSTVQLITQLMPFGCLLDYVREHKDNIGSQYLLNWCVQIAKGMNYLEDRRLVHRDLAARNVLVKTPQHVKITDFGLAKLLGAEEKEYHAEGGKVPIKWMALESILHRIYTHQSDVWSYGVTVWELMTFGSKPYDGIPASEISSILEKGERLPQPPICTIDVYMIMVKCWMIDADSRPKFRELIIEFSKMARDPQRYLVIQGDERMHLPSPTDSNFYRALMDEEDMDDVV
Chain of PIK3CA(H1047Y) (P42336 whole entry H1047Y): as the sequence (P42336 whole entry C420R) above, with R420C, H1047Y counted along it
Chain of FLT3 (P36888 27-993): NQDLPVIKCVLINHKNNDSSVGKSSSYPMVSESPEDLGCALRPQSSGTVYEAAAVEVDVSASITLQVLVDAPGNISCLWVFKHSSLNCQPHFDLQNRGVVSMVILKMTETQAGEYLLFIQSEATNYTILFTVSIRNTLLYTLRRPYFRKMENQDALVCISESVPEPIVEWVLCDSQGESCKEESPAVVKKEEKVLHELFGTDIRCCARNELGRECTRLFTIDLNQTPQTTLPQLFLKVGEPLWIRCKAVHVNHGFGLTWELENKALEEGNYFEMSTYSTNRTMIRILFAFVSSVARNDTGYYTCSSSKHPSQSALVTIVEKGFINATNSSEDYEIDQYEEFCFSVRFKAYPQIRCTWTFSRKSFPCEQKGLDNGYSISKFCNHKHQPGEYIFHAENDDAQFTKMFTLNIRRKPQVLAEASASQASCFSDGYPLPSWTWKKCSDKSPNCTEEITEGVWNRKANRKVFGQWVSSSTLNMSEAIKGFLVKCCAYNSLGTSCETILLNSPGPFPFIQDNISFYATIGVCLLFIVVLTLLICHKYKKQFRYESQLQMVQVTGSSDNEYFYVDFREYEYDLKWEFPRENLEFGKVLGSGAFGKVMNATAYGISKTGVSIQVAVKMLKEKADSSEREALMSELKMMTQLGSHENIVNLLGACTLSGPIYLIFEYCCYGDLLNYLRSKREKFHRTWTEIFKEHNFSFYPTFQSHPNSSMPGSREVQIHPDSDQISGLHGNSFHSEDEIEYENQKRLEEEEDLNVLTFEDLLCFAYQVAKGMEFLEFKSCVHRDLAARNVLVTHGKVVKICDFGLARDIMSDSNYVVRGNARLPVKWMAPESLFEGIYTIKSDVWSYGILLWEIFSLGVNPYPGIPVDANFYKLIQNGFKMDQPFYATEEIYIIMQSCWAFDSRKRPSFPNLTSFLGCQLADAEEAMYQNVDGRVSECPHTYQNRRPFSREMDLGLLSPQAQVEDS
Chain of KIT(V559D,T670I) (P10721 26-976 V559D/T670I): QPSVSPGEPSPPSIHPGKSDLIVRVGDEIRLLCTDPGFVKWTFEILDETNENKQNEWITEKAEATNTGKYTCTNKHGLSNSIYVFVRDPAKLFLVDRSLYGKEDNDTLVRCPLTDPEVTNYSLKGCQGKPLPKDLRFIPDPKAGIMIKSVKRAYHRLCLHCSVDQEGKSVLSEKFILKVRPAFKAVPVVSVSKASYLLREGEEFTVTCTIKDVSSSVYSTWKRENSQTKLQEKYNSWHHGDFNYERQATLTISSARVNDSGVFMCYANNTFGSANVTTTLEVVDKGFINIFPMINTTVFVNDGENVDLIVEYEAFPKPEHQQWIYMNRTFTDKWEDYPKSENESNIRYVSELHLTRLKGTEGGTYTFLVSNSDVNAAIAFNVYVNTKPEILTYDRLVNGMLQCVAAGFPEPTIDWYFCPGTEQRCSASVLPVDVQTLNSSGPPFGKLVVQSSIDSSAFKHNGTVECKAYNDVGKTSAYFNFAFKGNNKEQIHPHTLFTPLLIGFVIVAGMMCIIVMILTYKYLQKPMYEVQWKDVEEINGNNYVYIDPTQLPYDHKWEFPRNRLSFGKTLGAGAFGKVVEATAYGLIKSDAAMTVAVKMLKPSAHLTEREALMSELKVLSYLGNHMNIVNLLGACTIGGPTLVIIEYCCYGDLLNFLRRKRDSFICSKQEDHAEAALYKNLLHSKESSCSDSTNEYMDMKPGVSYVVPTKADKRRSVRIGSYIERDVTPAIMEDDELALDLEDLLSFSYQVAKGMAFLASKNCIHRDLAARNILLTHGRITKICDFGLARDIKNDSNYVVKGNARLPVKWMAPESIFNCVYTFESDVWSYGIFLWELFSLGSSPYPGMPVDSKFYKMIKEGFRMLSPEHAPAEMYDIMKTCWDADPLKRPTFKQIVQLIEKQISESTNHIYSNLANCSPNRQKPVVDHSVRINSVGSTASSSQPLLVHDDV
Chain of PLK3 (Q9H4B4 whole entry): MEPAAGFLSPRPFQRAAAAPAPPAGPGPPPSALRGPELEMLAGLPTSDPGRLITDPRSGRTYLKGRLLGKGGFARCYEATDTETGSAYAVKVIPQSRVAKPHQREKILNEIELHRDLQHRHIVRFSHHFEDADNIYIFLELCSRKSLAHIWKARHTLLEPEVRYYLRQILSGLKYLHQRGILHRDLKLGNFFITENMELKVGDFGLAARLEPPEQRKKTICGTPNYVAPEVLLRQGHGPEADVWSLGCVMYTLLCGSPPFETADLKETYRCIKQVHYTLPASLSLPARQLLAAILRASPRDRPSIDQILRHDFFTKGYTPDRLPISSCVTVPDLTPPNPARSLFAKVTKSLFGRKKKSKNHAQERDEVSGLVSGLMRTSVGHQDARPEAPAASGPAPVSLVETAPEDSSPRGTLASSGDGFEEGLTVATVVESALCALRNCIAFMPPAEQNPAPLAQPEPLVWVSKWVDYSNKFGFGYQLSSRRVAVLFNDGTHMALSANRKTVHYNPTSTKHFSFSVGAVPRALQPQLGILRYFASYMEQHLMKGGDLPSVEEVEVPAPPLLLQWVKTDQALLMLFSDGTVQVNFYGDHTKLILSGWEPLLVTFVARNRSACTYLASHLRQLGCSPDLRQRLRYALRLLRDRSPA
Chain of CSNK2A1 (P68400 whole entry): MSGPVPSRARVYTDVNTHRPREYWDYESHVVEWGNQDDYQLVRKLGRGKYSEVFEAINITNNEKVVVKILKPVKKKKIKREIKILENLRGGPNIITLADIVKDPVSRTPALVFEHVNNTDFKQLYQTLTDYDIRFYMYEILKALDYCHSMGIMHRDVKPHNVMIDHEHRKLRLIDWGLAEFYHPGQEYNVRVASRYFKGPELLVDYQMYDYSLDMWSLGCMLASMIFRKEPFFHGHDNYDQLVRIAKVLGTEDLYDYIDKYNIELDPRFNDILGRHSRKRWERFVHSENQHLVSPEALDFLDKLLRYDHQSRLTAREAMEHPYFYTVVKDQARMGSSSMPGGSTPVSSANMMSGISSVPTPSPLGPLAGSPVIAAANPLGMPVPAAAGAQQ

CN1C(=O)[C@@H](N2CCc3c(nn(Cc4ccccc4)c3C(N)=O)C2=O)COc2cc(Cl)ccc21 [Compound 10, (S)-2-benzyl-6-(8-chloro-5-methyl-4-oxo-2,3,4,5-tetrahydrobenzo[b][1,4]oxazepin-3-yl)-7-oxo-4,5,6,7-tetrahydro-2H-pyrazolo[3,4-c]pyridine-3-carboxamide]
remaining activity at 1 µM (PIK3CA(C420R)): 92% | AUC ([1]; 0.1 mg/kg, Mouse PK IV, 0.10 mg/kg, read-out: AUCiv): 94.7 ng·h/mL | concentration at 5 min ([1]; 0.1 mg/kg, Mouse PK IV, 0.10 mg/kg, read-out: C5min): 44.5 ng/mL | Cmax ([1]; Mouse PK PO, 1.0 mg/kg): 11.8 ng/mL | Tmax ([1]; Mouse PK PO, 1.0 mg/kg): 30 min | AUC ([1]; Mouse PK PO, 1.0 mg/kg, read-out: AUCpo): 30.9 ng·h/mL | bioavailability ([1]; mouse, PO 1.0 mg/kg vs IV 0.10 mg/kg): 4% | remaining activity at 1 µM (ALK(C1156Y)): 82% | remaining activity at 1 µM [2]: 85% | remaining activity at 0.1 µM (KIT(V559D,T670I)): 92% | remaining activity at 0.1 µM (PIK3CA(H1047Y)): 100% | remaining binding at 0.1 µM (RIPK1; RIPK1 (Entrez RIPK1), 100 nM, read-out: Percent Control): 55% | remaining binding at 1 µM (RIPK1; RIPK1, 1 μM, read-out: POC (Top Hits @ 1 μM)): 23% | remaining binding at 1 µM (RIPK1; RIPK1, 1000 nM, read-out: Percent Control): 23% | Percent Control (FLT3(ITD,D835V)): 81% | remaining activity at 1 µM [3]: 86% | remaining activity at 1 µM (EGFR(E746-A750del)): 86% | remaining activity at 1 µM (EGFR(S752-I759del)): 89% | receptor occupancy at 1 µM (MAPK4): -10.7% | receptor occupancy at 1 µM (MYLK4): -2.91% | receptor occupancy at 1 µM (FLT3): -3.18% | receptor occupancy at 1 µM (RIPK2): -1.2% | receptor occupancy at 1 µM (PLK3): 2.41% | receptor occupancy at 1 µM (PAK4): 3.71% | receptor occupancy at 1 µM (EPHB4): 4.16% | receptor occupancy at 1 µM (CSNK2A1): 3.96% | ΔTm at 10 µM (BRD4): -1.4 °C
